Assay results as given in US20220281848A1, “PYRAZOLE-SUBSTITUTED PYRROLIDINONES AS HERBICIDES” (FMC Corporation, priority 2019, published 2022).

Test system: plants
Test: Test D pre-emergence, other plants of Tables D1 and D3
Assay type: in vivo
Settings: for damage to plant (100=total damage to plant; 0=no damage to plant), SORVU: preemergent, 20 DAA; for damage to plant, ALOMY / damage to plant, AVEFA / damage to plant, BEAVA / damage to plant, BROTE / damage to plant, BRSNN / damage to plant, CHEAL / damage to plant, GALAP / damage to plant, HORVW / damage to plant, KCHSC / damage to plant, LOLPE / damage to plant, POAAN / damage to plant, POLCO / damage to plant, SINAR / damage to plant, STEME / damage to plant, VERPE: pre-emergence, 100=total damage, 0=no damage
Procedure, shortened: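 Damage was rated visually from 0 (none) to 100 (total), at 20 DAA for pre-emergence and 15 d for post-emergence. Plants grew from safener-treated seed in a glasshouse at 24/18° C. or 20/16° C. day/night, 65% humidity, watered twice daily.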

## CCn1nc([C@H]2CN(C)C(=O)[C@@H]2C(=O)Nc2cccc(F)c2F)c2cc(F)ccc21 [Compound 8]
Rate 250
  damage to plant (100=total damage to plant; 0=no damage to plant), SORVU: 20
Rate 500
  damage to plant (100=total damage to plant; 0=no damage to plant), SORVU: 30
Rate 15, 20 DAA
  damage to plant, ALOMY: 0
  damage to plant, AVEFA: 0
  damage to plant, BEAVA: 0
  damage to plant, BROTE: 0
  damage to plant, BRSNN: 0
  damage to plant, CHEAL: 0
  damage to plant, GALAP: 0
  damage to plant, HORVW: 0
  damage to plant, KCHSC: 0
  damage to plant, LOLPE: 0
  damage to plant, POAAN: 0
  damage to plant, POLCO: 0
  damage to plant, SINAR: 0
  damage to plant, STEME: 0
  damage to plant, VERPE: 0
Rate 30, 20 DAA
  damage to plant, ALOMY: 0
  damage to plant, AVEFA: 0
  damage to plant, BEAVA: 0
  damage to plant, BROTE: 0
  damage to plant, BRSNN: 0
  damage to plant, CHEAL: 0
  damage to plant, GALAP: 0
  damage to plant, HORVW: 0
  damage to plant, KCHSC: 0
  damage to plant, LOLPE: 0
  damage to plant, POAAN: 0
  damage to plant, POLCO: 0
  damage to plant, SINAR: 0
  damage to plant, STEME: 0
  damage to plant, VERPE: 0
Rate 60, 20 DAA
  damage to plant, ALOMY: 0
  damage to plant, AVEFA: 0
  damage to plant, BEAVA: 0
  damage to plant, BROTE: 0
  damage to plant, BRSNN: 0
  damage to plant, CHEAL: 0
  damage to plant, GALAP: 0
  damage to plant, HORVW: 0
  damage to plant, KCHSC: 0
  damage to plant, LOLPE: 0
  damage to plant, POAAN: 0
  damage to plant, POLCO: 0
  damage to plant, SINAR: 0
  damage to plant, STEME: 0
  damage to plant, VERPE: 0
Rate 130, 20 DAA
  damage to plant, ALOMY: 0
  damage to plant, AVEFA: 0
  damage to plant, BEAVA: 0
  damage to plant, BROTE: 0
  damage to plant, BRSNN: 0
  damage to plant, CHEAL: 0
  damage to plant, GALAP: 0
  damage to plant, HORVW: 0
  damage to plant, KCHSC: 0
  damage to plant, LOLPE: 0
  damage to plant, POAAN: 0
  damage to plant, POLCO: 0
  damage to plant, SINAR: 0
  damage to plant, STEME: 0
  damage to plant, VERPE: 0
Rate 250, 20 DAA
  damage to plant, ALOMY: 0
  damage to plant, AVEFA: 0
  damage to plant, BEAVA: 0
  damage to plant, BROTE: 0
  damage to plant, BRSNN: 0
  damage to plant, CHEAL: 0
  damage to plant, GALAP: 0
  damage to plant, HORVW: 0
  damage to plant, KCHSC: 0
  damage to plant, LOLPE: 0
  damage to plant, POAAN: 0
  damage to plant, POLCO: 0
  damage to plant, SINAR: 0
  damage to plant, STEME: 0
  damage to plant, VERPE: 0
Rate 500, 20 DAA
  damage to plant, ALOMY: 10
  damage to plant, AVEFA: 10
  damage to plant, BEAVA: 0
  damage to plant, BROTE: 0
  damage to plant, BRSNN: 10
  damage to plant, CHEAL: 0
  damage to plant, GALAP: 0
  damage to plant, HORVW: 10
  damage to plant, KCHSC: 0
  damage to plant, LOLPE: 0
  damage to plant, POAAN: 60
  damage to plant, POLCO: 0
  damage to plant, SINAR: 0
  damage to plant, STEME: 0
  damage to plant, VERPE: 0
